Consider 26 compounds from ChEMBL document CHEMBL3286274, “Investigation of a novel series of 2-hydroxyisoquinoline-1,3(2H,4H)-diones as human immunodeficiency virus type 1 integrase inhibitors” (J Med Chem, 2014).

Broadly, the IC50 is the concentration that gives 50% inhibition. By CC50 is commonly meant the concentration at which the toxic effect on the cells reaches its halfway point. The EC50 is the concentration needed to bring the measured effect to its halfway point. Broadly, the inhibition is the relative decrease from the control value, in per cent. For orientation: logD means the decadic logarithm of the distribution of all forms, ionised or not, between an organic phase and buffer at a given pH. A high value points to a more lipophilic compound.

Data set [1] concerns the target Human immunodeficiency virus type 1 integrase (Human immunodeficiency virus 1, UniProt Q7ZJM1). The data set can be described thus: Inhibition of HIV-1 overall integrase activity using 5'-digoxigenin-labeled GACCCTTTTAGTCAGTGTGGAAAATCTCTAGCAGT-3' as substrate after 1 hr by ELISA. Background: An ELISA detects its analyte on a solid surface through an enzyme-linked reagent.

Data set [2] is described as follows: Cytotoxicity against human MT4 cells infected with HIV-1 3B assessed as reduction in cell viability by MTT assay. Format: cell-based.
The test system of data set [3] is Human immunodeficiency virus 1. Put plainly: Antiviral activity against HIV-1 3B infected in human MT4 cells assessed as protection against virus-induced cytopathic effect by MTT assay. In kind it is functional, organism-based. To be noted: Human immunodeficiency virus 1, 3B. On the technique in general: Protection from cytopathic effect is a common read-out in antiviral testing.

In data set [4] the target is Human immunodeficiency virus type 1 reverse transcriptase (Human immunodeficiency virus 1) (UniProt Q72547). Put plainly: Inhibition of recombinant HIV-1 reverse transcriptase-associated RNase H activity using [3H]-labeled RNA as substrate at 10 uM after 10 mins relative to control.
Data set [5] deals with Human immunodeficiency virus type 1 reverse transcriptase (Human immunodeficiency virus 1, UniProt Q72547). Put plainly: Inhibition of recombinant HIV-1 reverse transcriptase-associated RNase H activity using [3H]-labeled RNA as substrate after 10 mins.
A further data set is described as follows: in vitro. To be noted: human, MT4 cells infected with HIV-1 3B.
Data set [6] concerns Human immunodeficiency virus 1. The data set can be described thus: Antiviral activity against HIV-1 3B infected in human MT4 cells assessed as inhibition of p24 antigen production by measuring time delay in loss of compound activity at 50 to 100 times EC50 by ELISA. In kind it is functional.
Data set [7] in a line: n-octanol-PBS partition coefficient, log D of the compound at pH 7.4. In kind it is physicochemical.
For data set [8], the system named is Human immunodeficiency virus 1. The data set can be described thus: Resistance ratio of EC50 for raltegravir-resistant HIV1 harboring integrase N155H mutant to EC50 for wild type HIV1. Format: functional.
In data set [9] the test system is Human immunodeficiency virus 1. The data set can be described thus: Resistance ratio of EC50 for raltegravir-resistant HIV1 harboring integrase E92Q mutant to EC50 for wild type HIV1. Format: functional.
Data set [10] has as its system Human immunodeficiency virus 1. Put plainly: Antiviral activity against HIV-1 3B infected in human MT4 cells assessed as inhibition of p24 antigen production at 50 to 100 times EC50 treated for 1 to 25 hrs measured at 30 hrs by ELISA. Format: functional, organism-based.
In data set [11] the test system is Human immunodeficiency virus 1. Put plainly: Resistance ratio of EC50 for raltegravir-resistant HIV1 harboring integrase Q148H mutant to EC50 for wild type HIV1. Format: functional.
In data set [12] the test system is Human immunodeficiency virus 1. The data set can be described thus: Resistance ratio of EC50 for raltegravir-resistant HIV1 harboring integrase G140S/Q148H double mutant to EC50 for wild type HIV1. Format: functional.

Activity calls are given as the source filed them. The rule behind the calls is not given here. Some results are limits rather than exact numbers.

Description for in vitro: Therapeutic index, ratio of CC50 for human MT4 cells infected with HIV-1 3B to EC50 for HIV-1 3B infected in human MT4 cells

`O=C(Cc1ccccc1)Nc1ccc2c(c1)C(=O)N(O)C(=O)C2C(=O)NCc1ccc(F)cc1` (stereo not drawn) had an IC50 in [1] of 0.23 µM. Further, in data set [2], the CC50 turned out to be 31 µM. In data set [3], the EC50 is above 31 µM. Also, the inhibition in data set [4] turned out to be 46.4%.

As for `O=C(NCc1ccc(F)cc1)c1c(O)n(O)c(=O)c2cc([N+](=O)[O-])ccc12`, the values for the half-inhibitory concentration (IC50) in data set [1] and in data set [5] were 0.01 µM and 4.8 µM, respectively. In addition, the inhibition in [4] turned out to be 78.7%.

In [1], `O=C(Cc1cccs1)Nc1ccc2c(c1)C(=O)N(O)C(=O)C2C(=O)NCc1ccc(F)cc1` (stereo not drawn) returned a half-maximal inhibitory concentration (IC50) of 0.06 µM. In addition, in [2], the half-maximal cytotoxic concentration (CC50) was determined as 41 µM. Besides, the concentration giving a half-maximal response (EC50) in data set [3] is above 41 µM. Besides, the inhibition in data set [4] was found to be 28.9%.

For `O=C(Nc1ccc(F)cc1)c1c(O)n(O)c(=O)c2cc([N+](=O)[O-])ccc12`, in data set [1], half-maximal inhibition (IC50) was put at 0.03 µM. The CC50 in [2] is 186 µM. Also, in data set [3], the EC50 turned out to be 0.19 µM. Further, the selectivity ratio in the data set “in vitro” came to 981.

The compound `O=C(NCc1ccc(F)cc1)C1C(=O)N(O)C(=O)c2cc(Cl)ccc21` (stereo not drawn) displayed a 50% inhibitory concentration (IC50) in data set [1] of 0.14 µM. Moreover, the 50% cytotoxic concentration (CC50) in data set [2] came to 106 µM. In addition, in data set [3], the EC50 worked out at 4.19 µM. The inhibition in [4] worked out at 26.3%.

`CC(C)c1nc(CN(C)C(=O)N[C@H](C(=O)N[C@@H](Cc2ccccc2)C[C@H](O)[C@H](Cc2ccccc2)NC(=O)OCc2cncs2)C(C)C)cs1` [RITONAVIR]: in data set [6], the Time stood at 25 h.

Take `Nc1ccc2c(c1)C(=O)N(O)C(=O)C2C(=O)NCc1ccc(F)cc1` (stereo not drawn): the half-maximal inhibitory concentration (IC50) in data set [1] was determined as 0.11 µM. In addition, the CC50 in data set [2] is 253 µM. Further, the EC50 in data set [3] turned out to be 23.3 µM. The selectivity ratio in “in vitro” came out at 10. The inhibition in data set [4] is 29.4%.

For `CCCCCCNC(=O)c1c(O)n(O)c(=O)c2cc([N+](=O)[O-])ccc12`, the midpoint of inhibition in data set [1], the IC50, lay at 0.06 µM. In data set [2], the CC50 was above 250 µM. In data set [3], the EC50 was found to be 4.21 µM. The selectivity ratio in “in vitro” was above 59. For the same compound, the inhibition in [4] came to 49%.

For `O=C(NCc1ccc(F)cc1)c1c(O)n(O)c(=O)c2ccccc12`, in data set [7], the log distribution coefficient (logD) amounted to 0.56. Moreover, the “Ratio EC50” value in [8], in [9], in data set [11] and in [12] was 1 in each case. Also, the inhibition result in [10] is “Active”.

As for `O=C(NCc1ccc(F)cc1)C1C(=O)N(O)C(=O)c2cc(C(F)(F)F)ccc21` (stereo not drawn), the half-inhibitory concentration (IC50) in data set [1] was 0.02 µM. Also, the CC50 in data set [2] is above 56 µM. In data set [3], the EC50 stood at 0.6 µM. Besides, the selectivity ratio in “in vitro” was above 94. Moreover, in data set [4], the inhibition was determined as 25.5%.

In turn, `N#Cc1ccc2c(C(=O)NCc3ccc(F)cc3)c(O)n(O)c(=O)c2c1` had an IC50 in [1] of 0.07 µM. Moreover, the cytotoxic concentration (CC50) in [2] was above 125 µM. Moreover, the half-maximal effective concentration (EC50) in data set [3] stood at 0.67 µM. Further, the selectivity ratio in the data set “in vitro” is above 187.

Take `CC(=O)Nc1ccc2c(c1)C(=O)N(O)C(=O)C2C(=O)NCc1ccc(F)cc1` (stereo not drawn): it took 0.1 µM to reach half-maximal inhibition in data set [1] (IC50). The CC50 in data set [2] was determined as 149 µM. The EC50 in data set [3] came to 29.3 µM. Moreover, in the data set “in vitro”, the selectivity ratio came out at 5. The inhibition in data set [4] stood at 25.2%.

In the case of `O=C(NCc1ccc(F)cc1)c1c(O)n(O)c(=O)c2ccc([N+](=O)[O-])cc12`, inhibition in data set [1] was half-maximal at 0.03 µM (IC50). Further, the CC50 in data set [2] is above 125 µM. Also, the 50% effective concentration (EC50) in data set [3] worked out at 0.27 µM. In addition, the selectivity ratio in the data set “in vitro” was above 463. In addition, the inhibition in data set [4] is 48.2%.

As for `O=C(NCc1ccc(F)cc1)C1C(=O)N(O)C(=O)c2cc(F)ccc21` (stereo not drawn), the IC50 in data set [1] was 0.24 µM. The half-maximal cytotoxic concentration (CC50) in data set [2] was determined as 116 µM. The concentration giving a half-maximal response (EC50) in [3] was determined as 0.73 µM. For the same compound, the selectivity ratio in the data set “in vitro” is 162. In addition, in data set [4], the inhibition was determined as 21.9%.

Consider `O=C(Nc1ccc2c(c1)C(=O)N(O)C(=O)C2C(=O)NCc1ccc(F)cc1)c1ccccn1` (stereo not drawn), for which, in data set [1], the IC50 was determined as 0.16 µM. For the same compound, the CC50 in [2] came out at 1 µM. In addition, the concentration for a half-maximal effect (EC50) in data set [3] was above 1.2 µM.

With `O=C(Nc1ccc2c(c1)C(=O)N(O)C(=O)C2C(=O)NCc1ccc(F)cc1)c1ccccc1` (stereo not drawn), in data set [1], the IC50 was 0.08 µM. For the same compound, the CC50 in data set [2] was 21 µM. The EC50 in data set [3] was above 21 µM. The inhibition in [4] is 41.2%.

For `O=C(NCc1ccc(F)cc1)C1C(=O)N(O)C(=O)c2c(F)cccc21` (stereo not drawn), the concentration for half-maximal inhibition (IC50) in data set [1] is 0.88 µM. Also, the half-maximal cytotoxic concentration (CC50) in [2] is 149 µM. Further, the concentration giving a half-maximal response (EC50) in [3] is 4.46 µM. Also, the selectivity ratio in the data set “in vitro” is 33. Moreover, the inhibition in data set [4] was determined as 31.6%.

As to `O=C(Nc1ccccc1)c1c(O)n(O)c(=O)c2cc([N+](=O)[O-])ccc12`, the IC50 in [1] is 0.01 µM. Also, the half-maximal cytotoxic concentration (CC50) in [2] was 115 µM. The EC50 in [3] stood at 0.17 µM. Also, the selectivity ratio in the data set “in vitro” worked out at 679. In data set [4], the inhibition stood at 60%.

In turn, `O=C(NCc1ccc(F)cc1)C1C(=O)N(O)C(=O)c2cc(Br)ccc21` (stereo not drawn) gave an IC50 in data set [1] of 0.06 µM. Further, the CC50 in data set [2] stood at 99.5 µM. In [3], the half-maximal effective concentration (EC50) worked out at 2.99 µM. Besides, the selectivity ratio in “in vitro” was 33. For the same compound, in data set [4], the inhibition came to 38.7%.

On to `O=C(NCc1ccc(F)cc1)C1C(=O)N(O)C(=O)c2ccc(F)cc21` (stereo not drawn), for which the half-maximal inhibitory concentration (IC50) in data set [1] worked out at 0.24 µM. The CC50 in data set [2] was determined as 123 µM. In addition, in data set [3], the EC50 is 3.16 µM. Also, in “in vitro”, the selectivity ratio stood at 39. Besides, the inhibition in data set [4] came out at 24.5%.

On to `Cc1cn([C@H]2C[C@H](N=[N+]=[N-])[C@@H](CO)O2)c(=O)[nH]c1=O` [ZIDOVUDINE], for which the Time in [6] stood at 4 h.

In data set [1], `O=C(NCCc1ccc(F)cc1)c1c(O)n(O)c(=O)c2cc([N+](=O)[O-])ccc12` showed an IC50 of 0.06 µM. For the same compound, the half-maximal cytotoxic concentration (CC50) in [2] is above 250 µM. For the same compound, the 50% effective concentration (EC50) in data set [3] turned out to be 0.95 µM. Also, in the data set “in vitro”, the selectivity ratio is above 262.

In the case of `Cc1nnc(C(=O)NC(C)(C)c2nc(C(=O)NCc3ccc(F)cc3)c(O)c(=O)n2C)o1`, the CC50 in data set [2] is above 8 µM.

In turn, `COc1ccc(CNC(=O)c2c(O)n(O)c(=O)c3cc([N+](=O)[O-])ccc23)cc1` showed an IC50 in data set [1] of 0.01 µM. Besides, the 50% cytotoxic concentration (CC50) in data set [2] was above 250 µM. For the same compound, in data set [3], the EC50 came to 2.97 µM. Moreover, in “in vitro”, the selectivity ratio is above 84. Also, in data set [4], the inhibition came to 67.2%.

`COc1ccc2c(c1)C(=O)N(O)C(=O)C2C(=O)NCc1ccc(F)cc1` (stereo not drawn) displayed an IC50 in data set [1] of 0.26 µM. For the same compound, the CC50 in data set [2] was 21 µM. In addition, the EC50 in data set [3] was found to be 6.5 µM. In addition, the selectivity ratio in “in vitro” turned out to be 3. Besides, in data set [4], the inhibition was 15.5%.

`O=C(NCc1ccccc1)c1c(O)n(O)c(=O)c2cc([N+](=O)[O-])ccc12` had a half-inhibitory concentration (IC50) in data set [1] of 0.01 µM. For the same compound, the CC50 in data set [2] is 118 µM. Also, the EC50 in data set [3] worked out at 0.21 µM. Moreover, the selectivity ratio in the data set “in vitro” was determined as 564. Further, the inhibition in data set [4] amounted to 69.1%.
